# Test results: patent US5110976A, “Insecticidal composition comprising more than one active ingredient” (priority 1985, dated 1992)
# Tests used:
# Musca domestica [1] = conditions: bioresmetrine = 100; cited from earlier work
# Phaedon cochleariae = conditions: bioresmetrine = 100; cited from earlier work
# T. confusum [2] = assay: Contact method, synergism between stereoisomers (Table 2); assay type: in vivo; conditions: Tribolium confusum, 24 h
# Description: The stereoisomers are dissolved in a 1:2 mixture of mineral oil and acetone and filter paper discs (Whatman No. 1., diameter 9 cm) are impregnated with the corresponding dosage of the solution of the active ingredient. The acetone is allowed to evaporate and the insects are examined on filter paper discs placed into Petri-dishes. Three parallels are used for each dose and 15 animals are placed in each Petri-dish. Mortality rate is determined after 24 hours. The corrected mortality % data are calculated by means of the Abbot formula.
# The test is carried out on T. confusum and the following results are obtained by the contact method for various active ingredient doses.
# The test is carried out according to the method described in Example 20.
# T. confusum [3] = assay: Topical LD50 (Table 3); assay type: in vivo, 1-2 weeks' old imagos; conditions: topical, abdominal side
# Description: (§1) In Table 3 the LD50 values of the Ig and Ii isomers and those of the Ib isomer-pair are disclosed. The data are topically measured.
# (§2) The active ingredients are dissolved in 2-ethoxyethanol (cellosolve) and 0.3 μl droplets of the solutions are applied onto the dorsal cuticulum of 3-5 days' old female house flies. 10 animals are used and 2 parallels are carried out for each dose. The tests are carried out for 5 dose levels between activity limits of 0% and 100%. After treatment the flies are placed into glass vials. Mortality is determined after 24 hours. Data are transformed to log10 dosage and probit mortality. LD50 and confidence interval values are calculated by linear regression analysis of the log-probit data. The expected values required for the calculation of synergism are obtained by means of harmonic average. The synergistic factor is the quotient of the expected and measured values.
# The active ingredients are dissolved in 2-ethoxyethanol and 0.3 μl droplets of the solutions are applied onto the abdominal side of 1-2 weeks' old imagos. Treatment is carried out with 2 parallels and 20 animals for each dose by using 5 dose levels in the range between activity limits of 0% and 100%. Evaluation and determination of LD50 values and synergistic factors are carried out as described in Example 21.
# Musca domestica [4] = assay: Topical LD50 (Table 3); assay type: in vivo, house fly (Musca domestica), 3-5 days' old females; conditions: topical, dorsal cuticulum; 24 hours
# Description: as §1, §2
# Musca domestica [5] = assay: Filter paper disc contact test (Table 11); assay type: in vivo, house fly (Musca domestica); conditions: Musca domestica, 24 h
# Description: In Table 1 the activity of various stereoisomers of cypermethrin on the house fly (Musca domestica) is shown.
# (§3) The active ingredient is dissolved in a 1:2 mixture of oil and acetone; filter paper discs (Whatman No. 1, diameter 9 cm) are impregnated with the solutions of the corresponding stereoisomers and enantiomer-pairs, respectively. The acetone is allowed to evaporate, whereupon the insects are exposed to filter papers discs placed in Petri-dishes. Three parallels are used on each dose and 15 insects are placed into each Petri-dish. The percental mortality is determined after 24 hours. The corrected percent mortality is calculated by means of the Abbot Formula.
# Tribolium confusum = assay: Contact test on Tribolium confusum (Table 12); assay type: in vivo; conditions: Tribolium confusum, 24 h
# Description: as §3
# It appears from Table 12 that the increased activity shown in Example 41 is due to the synergistic effect of the trans-isomers to Tribolium confusum.
# T. confusum [6] = assay: Activity as function of time, toxic symptoms (Table 16); assay type: in vivo, flour beetle (T. confusum), imagos
# Description: as §3
# Activity of cypermethrin stereoisomer-pairs as function of time on flour beetle (T. Confusum).
# Flour beetle (T. confusum) imagos are exposed in Petri-dishes according to the method described in Example 43. For each dose 3 parallels are used and 15 animals are applied for each parallel test. In each point of time the insects lying on their backs are counted and the percental results are expressed in Table 16.
smiles,measurement,setting,value
CC1(C)[C@H](C=C(Cl)Cl)[C@H]1C(=O)O[C@@H](C#N)c1cccc(Oc2ccccc2)c1 [1RtransR],activity related to bioresmetrine (100),Musca domestica [1],81
same,activity related to bioresmetrine (100),Phaedon cochleariae,110
CC1(C)[C@H](C=C(Cl)Cl)[C@H]1C(=O)O[C@H](C#N)c1cccc(Oc2ccccc2)c1 [Ig],mortality at 110 µg/disc,T. confusum [2]; 0.11 mg/disc,80%
same,mortality at 330 µg/disc,T. confusum [2]; 0.33 mg/disc,94%
same,mortality at 1000 µg/disc,T. confusum [2]; 1.00 mg/disc,100%
same,mortality at 3000 µg/disc,T. confusum [2]; 3.00 mg/disc,100%
same,LD50 measured,T. confusum [3],73.6 ng/insect
same,LD50 measured,Musca domestica [4],13.4 ng/insect
same,mortality at 40 µg/disc,Musca domestica [5]; 0.04 mg/disc,48%
same,mortality at 110 µg/disc,Musca domestica [5]; 0.11 mg/disc,68%
same,mortality at 330 µg/disc,Musca domestica [5]; 0.33 mg/disc,83%
same,mortality at 1000 µg/disc,Musca domestica [5]; 1.00 mg/disc,100%
same,mortality at 3000 µg/disc,Musca domestica [5]; 3.00 mg/disc,100%
same,mortality at 110 µg/disc,Tribolium confusum; 0.11 mg/disc,70%
same,mortality at 330 µg/disc,Tribolium confusum; 0.33 mg/disc,92%
same,mortality at 1000 µg/disc,Tribolium confusum; 1.00 mg/disc,100%
same,mortality at 3000 µg/disc,Tribolium confusum; 3.00 mg/disc,100%
same,% of insects showing toxic symptoms,T. confusum [6]; 30 minutes,0%
same,% of insects showing toxic symptoms,"T. confusum [6]; 30 minutes, 0.33 mg/disc",0%
same,% of insects showing toxic symptoms,"T. confusum [6]; 30 minutes, 1.00 mg/disc",15%
same,% of insects showing toxic symptoms,"T. confusum [6]; 30 minutes, 3.00 mg/disc",68%
same,% of insects showing toxic symptoms,T. confusum [6]; 60 minutes,18%
same,% of insects showing toxic symptoms,"T. confusum [6]; 60 minutes, 0.33 mg/disc",34%
same,% of insects showing toxic symptoms,"T. confusum [6]; 60 minutes, 1.00 mg/disc",98%
same,% of insects showing toxic symptoms,"T. confusum [6]; 60 minutes, 3.00 mg/disc",100%
same,% of insects showing toxic symptoms,T. confusum [6]; 120 minutes,30%
same,% of insects showing toxic symptoms,"T. confusum [6]; 120 minutes, 0.33 mg/disc",70%
same,% of insects showing toxic symptoms,"T. confusum [6]; 120 minutes, 1.00 mg/disc",100%
same,% of insects showing toxic symptoms,"T. confusum [6]; 120 minutes, 3.00 mg/disc",100%
same,% of insects showing toxic symptoms,T. confusum [6]; 180 minutes,34%
same,% of insects showing toxic symptoms,"T. confusum [6]; 180 minutes, 0.33 mg/disc",84%
same,% of insects showing toxic symptoms,"T. confusum [6]; 180 minutes, 1.00 mg/disc",100%
same,% of insects showing toxic symptoms,"T. confusum [6]; 180 minutes, 3.00 mg/disc",100%
same,activity related to bioresmetrine (100),Musca domestica [1],1400
same,activity related to bioresmetrine (100),Phaedon cochleariae,2200
